Data taken from patent EP3292132B1, “PI3K INHIBITOR COMPOUNDS TO TREAT CANCER” (FUNDACIÓN MEDINA. Centro de Excelencia en Investigación de …, priority 2015, dated 2016).

Assays:
Phospho AKT = assay: Western blot, PI3K/AKT/mTOR pathway inhibition: phospho AKT; assay type: cell-based; details: 1 hour treatment; signals quantified using β-actine
From the text: (§1) Western blot technique was used, using an Odissey Licor equipment to identify the proteins. Phospho AKT, AKT and Phospho GSK3β antibodies were used as first antibodies and anti-mouse 680nm as second antibody. Then, the signals were quantified using β-actine.

Phospho GSK3β = assay: Western blot, PI3K/AKT/mTOR pathway inhibition: phospho GSK3β; assay type: cell-based; details: 1 hour treatment; signals quantified using β-actine
From the text: as §1

AKT = assay: Western blot, PI3K/AKT/mTOR pathway inhibition: total AKT; assay type: cell-based; details: 60 min treatment; signals quantified using β-actine
From the text: as §1

mice = details: mouse, ip, 50 mg/kg
Protocol: In order to evaluate the in vivo toxicity, mice were intraperitoneal injected with MDN-0088 at 50 mg/kg.

MCF-7 cell line = assay: Cell cycle analysis by flow cytometry (propidium iodide DNA staining); assay type: cell-based; details: for percentage of cells in each cell cycle phase: G0/G1 / percentage of cells in each cell cycle phase: G2/M / percentage of cells in each cell cycle phase: S: 72 hours of incubation
Protocol: For the evaluation of the MDN-0088 activity, the MCF-7 cell line was used. The method used was flow cytometry to determine the effect of MDN-0088 on cell cycle. This method of DNA staining utilizes ethanol to fix the cells and permeabilize the membrane, which allows the dye (Propidium Iodide) to enter the cells.
For this purpose, cells were seeded in 6-well plates at 200,000 cells/well. After 24 hours, cells were serum-deprived for 72 hours. Medium was removed and compounds/standards were added in fresh medium at a different concentration (4µL of compound/2mL fresh medium). DMSO concentration was 0.2% in all wells. After 72 hours of incubation (37 °C, 5% CO2), cells were scrapped and centrifuged (1200rpm for 5 min) and washed twice with PBS. 330 µL of cell suspension was placed in a Facs tube and 660 µL ice cold 100% ethanol was added drop-wise to the tube walls. Tubes were mixed by vortexing slowly during addition of ethanol. They were left at […] overnight.
Tubes were centrifuged (1200 rpm for 5 min) to remove ethanol, 4 mL PBS was added and they were washed at 1200 rpm for 5 min. The supernatant was removed and cells were resuspended in DNA staining solution (500 µL PBS/IP 20µg/mL/Rnase 0.2 mg/ml). Data was acquired on a flow cytometer (Accury, BD).
As shown in Table 3 and Figure 1, an increase in G0/G1 and a decrease both in S and G2/M phase were observed. […]

Row | Structure (SMILES) | pAKT (Phospho AKT) | phospho-GSK3 β (Phospho GSK3β) | AKT total (AKT) | weight loss or changes in behavior (mice; in vivo) | in vivo toxicity (mice) | percentage of cells in each cell cycle phase: G0/G1 (MCF-7 cell line; MCF-7, 6.25 µM) [%] | percentage of cells in each cell cycle phase: G2/M (MCF-7 cell line; MCF-7, 6.25 µM) [%] | percentage of cells in each cell cycle phase: S (MCF-7 cell line; MCF-7, 6.25 µM) [%] | percentage of cells in each cell cycle phase: G0/G1 (MCF-7 cell line; MCF-7, 12.5 µM) [%] | percentage of cells in each cell cycle phase: G2/M (MCF-7 cell line; MCF-7, 12.5 µM) [%] | percentage of cells in each cell cycle phase: S (MCF-7 cell line; MCF-7, 12.5 µM) [%] | percentage of cells in each cell cycle phase: G0/G1 (MCF-7 cell line; MCF-7, 25 µM) [%] | percentage of cells in each cell cycle phase: G2/M (MCF-7 cell line; MCF-7, 25 µM) [%] | percentage of cells in each cell cycle phase: S (MCF-7 cell line; MCF-7, 25 µM) [%] | percentage of cells in each cell cycle phase: G0/G1 (MCF-7 cell line; MCF-7, 50 µM) [%] | percentage of cells in each cell cycle phase: G2/M (MCF-7 cell line; MCF-7, 50 µM) [%] | percentage of cells in each cell cycle phase: S (MCF-7 cell line; MCF-7, 50 µM) [%] | effect on cell cycle (MCF-7 cell line; MCF-7, result in words)
1 | O=c1cc(N2CCOCC2)oc2c(-c3ccccc3)cccc12 [LY294002, reference compound] | 0.055 | 0.042 | 0.61 | – | – | – | – | – | – | – | – | – | – | – | – | – | – | –
2 | CCCCCCCC(=O)CCCc1oc(=O)ccc1O[C@@H]1O[C@H](CO)[C@@H](O)[C@H](O)[C@H]1O [MDN-0088] | 0.027 | 0.037 | 0.58 | no weight loss or changes in their behavior | absence of toxicity | 48.17 | 17.71 | 6.09 | 53.49 | 15.76 | 5.64 | 56.9 | 14.38 | 3.49 | 62.79 | 10.99 | 2.37 | blocks the cell cycle in G0/G1 phase
